± gives the standard deviation of the averaged measurements.
Compound: COCC[n+]1c2c(n(Cc3cnccn3)c1C)C(=O)c1ccccc1C2=O [YM155]
Assay: surviving fraction relative to DMSO-only wells; higher = less growth inhibition
Conditions: 0.5 nM; exposure time: 5 days
Procedure, shortened: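 Surviving fraction was calculated by normalising CellTiter-Glo luminescence to the median of DMSO-only wells. Tumour cell lines in log phase were seeded in 384-well plates at 250–500 cells per well, and 24 hours later were exposed continuously for five days to inhibitors at 0.5, 1, 5, 10, 50, 100, 500 and 1000 nM.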

22RV1 PROSTATE and 93VU HEADNECK are within error of each other in surviving fraction: 1.12 ± 0.21 for the first, 0.961 ± 0.099 for the second.

143B BONE and A549 LUNG are within error of each other in surviving fraction: 0.89 ± 0.082 for the first, 0.977 ± 0.029 for the second.

ASKA SYNOVIAL and BT20 BREAST are within error of each other in surviving fraction: 0.87 ± 0.054 for the first, 0.907 ± 0.077 for the second.

BT549 BREAST and CADOES1 SOFT TISSUE are within error of each other in surviving fraction: 1.08 ± 0.11 for the first, 1.06 ± 0.12 for the second.

Going from CAL51 BREAST to CAL72 BONE, the surviving fraction rises from 0.905 ± 0.039 to 1.05 ± 0.081.

CAL120 BREAST and CASKI CERVIX are within error of each other in surviving fraction: 0.934 ± 0.049 for the first, 0.914 ± 0.052 for the second.

CCK81 LARGE INTESTINE and CHLA90 AUTONOMIC GANGLIA are within error of each other in surviving fraction: 0.854 ± 0.1 for the first, 0.807 ± 0.017 for the second.

Going from CME SYNOVIAL to COLO320DM LARGE INTESTINE, the surviving fraction rises from 0.752 ± 0.12 to 0.981 ± 0.051.

DU4475 BREAST and G292 BONE are within error of each other in surviving fraction: 0.934 ± 0.11 for the first, 0.967 ± 0.04 for the second.

Compared with H23 LUNG, HCC38 BREAST is higher in surviving fraction: 0.78 ± 0.053 for the first, 1.28 ± 0.18 for the second.

Going from HCC78 LUNG to HCC202 BREAST, the surviving fraction rises from 0.7 ± 0.12 to 1.19 ± 0.025.

HCC1806 BREAST and HMLE3 BREAST are within error of each other in surviving fraction: 1.04 ± 0.077 for the first, 0.974 ± 0.062 for the second.

Going from HMT3552 BREAST to HOS BONE, the surviving fraction falls from 0.983 ± 0.045 to 0.923 ± 0.0036.

HOSMNG BONE and HS57T BREAST are within error of each other in surviving fraction: 0.934 ± 0.09 for the first, 0.919 ± 0.02 for the second.

Compared with HSSYII SYNOVIAL, HT1080 SOFT TISSUE is higher in surviving fraction: 0.876 ± 0.058 for the first, 1.03 ± 0.021 for the second.

HU09 BONE and HUO3N1 BONE are within error of each other in surviving fraction: 0.942 ± 0.072 for the first, 0.984 ± 0.065 for the second.

JIMT1 BREAST and LM7 BONE are within error of each other in surviving fraction: 0.971 ± 0.033 for the first, 0.943 ± 0.029 for the second.

Going from LNCAP PROSTATE to MDAMB134 BREAST, the surviving fraction falls from 0.92 ± 0.085 to 0.783 ± 0.027.

Compared with MDAMB157 BREAST, MDAMB231 BREAST is lower in surviving fraction: 0.958 ± 0.024 for the first, 0.91 ± 0.0095 for the second.

MDAMB361 BREAST and MDAMB436 BREAST are within error of each other in surviving fraction: 0.869 ± 0.069 for the first, 0.932 ± 0.065 for the second.

MDAMB468 BREAST gave a surviving fraction of 0.953 ± 0.021.

Same assay, conditions: 1 nM; exposure time: 5 days

22RV1 PROSTATE and 93VU HEADNECK are within error of each other in surviving fraction: 1.05 ± 0.097 for the first, 0.982 ± 0.081 for the second.

143B BONE and A549 LUNG are within error of each other in surviving fraction: 0.987 ± 0.027 for the first, 1.01 ± 0.034 for the second.

ASKA SYNOVIAL and BT20 BREAST are within error of each other in surviving fraction: 0.924 ± 0.094 for the first, 0.875 ± 0.089 for the second.

BT549 BREAST and CADOES1 SOFT TISSUE are within error of each other in surviving fraction: 1.03 ± 0.11 for the first, 0.907 ± 0.093 for the second.

CAL51 BREAST and CAL72 BONE are within error of each other in surviving fraction: 0.873 ± 0.042 for the first, 1.01 ± 0.097 for the second.

CAL120 BREAST and CASKI CERVIX are within error of each other in surviving fraction: 0.905 ± 0.073 for the first, 0.93 ± 0.07 for the second.

First: CCK81 LARGE INTESTINE
Second: CHLA90 AUTONOMIC GANGLIA
The surviving fraction of the first is lower: 0.82 ± 0.03 for the first, 0.926 ± 0.075 for the second.

CME SYNOVIAL and COLO320DM LARGE INTESTINE are within error of each other in surviving fraction: 0.95 ± 0.22 for the first, 1.01 ± 0.063 for the second.

Compared with DU4475 BREAST, G292 BONE is higher in surviving fraction: 0.805 ± 0.044 for the first, 1 ± 0.047 for the second.

Going from H23 LUNG to HCC38 BREAST, the surviving fraction rises from 0.822 ± 0.056 to 1.27 ± 0.12.

Going from HCC78 LUNG to HCC202 BREAST, the surviving fraction rises from 0.701 ± 0.23 to 1.13 ± 0.014.

HCC1806 BREAST and HMLE3 BREAST are within error of each other in surviving fraction: 1.08 ± 0.15 for the first, 1.06 ± 0.15 for the second.

Going from HMT3552 BREAST to HOS BONE, the surviving fraction falls from 1.015 ± 0.009 to 0.503 ± 0.017.

HOSMNG BONE and HS57T BREAST are within error of each other in surviving fraction: 0.929 ± 0.1 for the first, 0.923 ± 0.056 for the second.

Compared with HSSYII SYNOVIAL, HT1080 SOFT TISSUE is higher in surviving fraction: 0.843 ± 0.014 for the first, 0.954 ± 0.035 for the second.

HU09 BONE and HUO3N1 BONE are within error of each other in surviving fraction: 1.01 ± 0.13 for the first, 1.06 ± 0.015 for the second.

Compared with JIMT1 BREAST, LM7 BONE is lower in surviving fraction: 0.992 ± 0.021 for the first, 0.889 ± 0.053 for the second.

Going from LNCAP PROSTATE to MDAMB134 BREAST, the surviving fraction falls from 0.943 ± 0.033 to 0.855 ± 0.052.

Compared with MDAMB157 BREAST, MDAMB231 BREAST is lower in surviving fraction: 1.02 ± 0.092 for the first, 0.903 ± 0.024 for the second.

MDAMB361 BREAST and MDAMB436 BREAST are within error of each other in surviving fraction: 0.826 ± 0.073 for the first, 0.929 ± 0.14 for the second.

With MDAMB468 BREAST the surviving fraction was 0.901 ± 0.035.

Same assay, conditions: 5 nM; exposure time: 5 days

Going from 22RV1 PROSTATE to 93VU HEADNECK, the surviving fraction rises from 0.703 ± 0.16 to 1.06 ± 0.061.

Compared with 143B BONE, A549 LUNG is higher in surviving fraction: 0.431 for the first, 0.971 ± 0.021 for the second.

Compared with ASKA SYNOVIAL, BT20 BREAST is lower in surviving fraction: 0.719 ± 0.039 for the first, 0.0757 ± 0.0075 for the second.

BT549 BREAST and CADOES1 SOFT TISSUE are within error of each other in surviving fraction: 0.99 ± 0.0076 for the first, 0.92 ± 0.096 for the second.

Going from CAL51 BREAST to CAL72 BONE, the surviving fraction rises from 0.231 ± 0.029 to 0.347 ± 0.082.

Going from CAL120 BREAST to CASKI CERVIX, the surviving fraction rises from 0.148 ± 0.021 to 0.796 ± 0.056.

CCK81 LARGE INTESTINE and CHLA90 AUTONOMIC GANGLIA are within error of each other in surviving fraction: 0.735 ± 0.076 for the first, 0.734 ± 0.057 for the second.

Going from CME SYNOVIAL to COLO320DM LARGE INTESTINE, the surviving fraction rises from 0.468 ± 0.037 to 0.994 ± 0.087.

First: DU4475 BREAST
Second: G292 BONE
The surviving fraction of the first is higher: 0.839 ± 0.08 for the first, 0.654 ± 0.024 for the second.

First: H23 LUNG
Second: HCC38 BREAST
The surviving fraction of the first is lower: 0.125 ± 0.014 for the first, 0.346 ± 0.013 for the second.

Compared with HCC78 LUNG, HCC202 BREAST is higher in surviving fraction: 0.457 ± 0.059 for the first, 1.34 ± 0.26 for the second.

Compared with HCC1806 BREAST, HMLE3 BREAST is higher in surviving fraction: 0.308 ± 0.016 for the first, 0.425 ± 0.072 for the second.

First: HMT3552 BREAST
Second: HOS BONE
The surviving fraction of the first is higher: 1.06 ± 0.015 for the first, 0.075 ± 0.0078 for the second.

First: HOSMNG BONE
Second: HS57T BREAST
The surviving fraction of the first is higher: 0.889 ± 0.096 for the first, 0.729 ± 0.058 for the second.

Going from HSSYII SYNOVIAL to HT1080 SOFT TISSUE, the surviving fraction rises from 0.199 ± 0.0066 to 0.433 ± 0.0064.

HU09 BONE and HUO3N1 BONE are within error of each other in surviving fraction: 0.925 ± 0.053 for the first, 1.01 ± 0.036 for the second.

First: JIMT1 BREAST
Second: LM7 BONE
The surviving fraction of the first is higher: 0.888 ± 0.033 for the first, 0.433 ± 0.018 for the second.

LNCAP PROSTATE and MDAMB134 BREAST are within error of each other in surviving fraction: 0.87 ± 0.097 for the first, 0.759 ± 0.037 for the second.

Going from MDAMB157 BREAST to MDAMB231 BREAST, the surviving fraction falls from 0.77 ± 0.037 to 0.112 ± 0.002.

MDAMB361 BREAST and MDAMB436 BREAST are within error of each other in surviving fraction: 0.919 ± 0.23 for the first, 0.744 ± 0.13 for the second.

With MDAMB468 BREAST the surviving fraction was 0.325 ± 0.039.

Same assay, conditions: 10 nM; exposure time: 5 days

Compared with 22RV1 PROSTATE, 93VU HEADNECK is higher in surviving fraction: 0.679 ± 0.13 for the first, 1.045 ± 0.0081 for the second.

Compared with 143B BONE, A549 LUNG is higher in surviving fraction: 0.246 ± 0.042 for the first, 0.98 ± 0.021 for the second.

Going from ASKA SYNOVIAL to BT20 BREAST, the surviving fraction falls from 0.375 ± 0.017 to 0.0613 ± 0.006.

BT549 BREAST and CADOES1 SOFT TISSUE are within error of each other in surviving fraction: 0.834 ± 0.11 for the first, 0.911 ± 0.12 for the second.

Compared with CAL51 BREAST, CAL72 BONE is higher in surviving fraction: 0.105 ± 0.015 for the first, 0.202 ± 0.034 for the second.

Going from CAL120 BREAST to CASKI CERVIX, the surviving fraction rises from 0.0712 ± 0.0018 to 0.538 ± 0.046.

First: CCK81 LARGE INTESTINE
Second: CHLA90 AUTONOMIC GANGLIA
The surviving fraction of the first is higher: 0.745 ± 0.021 for the first, 0.44 ± 0.057 for the second.

Going from CME SYNOVIAL to COLO320DM LARGE INTESTINE, the surviving fraction rises from 0.254 ± 0.049 to 1.03 ± 0.17.

Compared with DU4475 BREAST, G292 BONE is lower in surviving fraction: 0.903 ± 0.21 for the first, 0.528 ± 0.037 for the second.

Going from H23 LUNG to HCC38 BREAST, the surviving fraction rises from 0.113 ± 0.003 to 0.243 ± 0.015.

First: HCC78 LUNG
Second: HCC202 BREAST
The surviving fraction of the first is lower: 0.269 ± 0.062 for the first, 1.31 ± 0.22 for the second.

Going from HCC1806 BREAST to HMLE3 BREAST, the surviving fraction falls from 0.284 ± 0.01 to 0.129 ± 0.02.

Going from HMT3552 BREAST to HOS BONE, the surviving fraction falls from 1.05 ± 0.056 to 0.0527 ± 0.0038.

HOSMNG BONE and HS57T BREAST are within error of each other in surviving fraction: 0.87 ± 0.11 for the first, 0.799 ± 0.1 for the second.

First: HSSYII SYNOVIAL
Second: HT1080 SOFT TISSUE
The surviving fraction of the first is lower: 0.0977 ± 0.011 for the first, 0.237 ± 0.017 for the second.

HU09 BONE and HUO3N1 BONE are within error of each other in surviving fraction: 0.917 ± 0.11 for the first, 1.06 ± 0.04 for the second.

Compared with JIMT1 BREAST, LM7 BONE is lower in surviving fraction: 0.543 ± 0.056 for the first, 0.201 ± 0.019 for the second.

Going from LNCAP PROSTATE to MDAMB134 BREAST, the surviving fraction falls from 0.978 ± 0.1 to 0.5665 ± 0.005.

Compared with MDAMB157 BREAST, MDAMB231 BREAST is lower in surviving fraction: 0.799 ± 0.039 for the first, 0.0683 ± 0.0035 for the second.

MDAMB361 BREAST and MDAMB436 BREAST are within error of each other in surviving fraction: 0.549 ± 0.041 for the first, 0.556 ± 0.099 for the second.

In the case of MDAMB468 BREAST, the surviving fraction is reported as 0.0717 ± 0.0067.
